This is an account of results in US20240200074A1, “METHOD AND COMPOSITIONS FOR PREVENTING TUMOR DEVELOPMENT AND METASTASIS” (The Administrators of the Tulane Educational Fund, priority 2021, published 2024).

The subject of one series is KNS. Put plainly: MTT assay with IGU, pediatric GBM cell line. It is filed as cell-based, human. How it is done: (§1) In vitro investigations were carried out using transduced TNBC cell line (MDAMB-231) and patient derived TNBC cells (4IC), pediatric GBM cell line (KNS), and adult GBM cell line (U87) by targeting and suppressing/silencing TRAF3IP2 expression using shRNA Lentiviral vector (TRAF3IP2KD) versus shRNA control (SCR). Using MTT assay, we treated malignant cells with low and high concentrations of IGU to test cell proliferation, viability, and apoptosis compared to vehicle (DMSO) treated cells. It is shown in FIG. 16 that the silencing of TRAF3IP2 enhances the effect of IGU on adult glioblastoma cells (U87), pediatric glioblastoma cells (KNS) and on triple negative cancer cell growth (data not shown).
On the technique in general: Formazan colour is commonly taken as a measure of viable cells.

The test system of another series is U87. Put plainly: MTT assay with IGU, adult GBM cell line. It is filed as cell-based, human. How it is done:
as §1

The subject of another series is 4IC. Put plainly: Cell cycle profile of 4IC cells in vitro, Paclitaxel and TRAF3IP2 knockdown. Type of series: cell-based, human. The text has this: One chemotherapy agent being tested is Paclitaxel. […] Paclitaxel has been previously shown to arrest cell cycle progression at the G2/M phase, resulting in apoptosis.
The next series relates to wild type 4IC cells. In words: 4IC tumors in vivo, combination therapy with Paclitaxel and TRAF3IP2-AO. The conditions noted are these: vs SCR-AO group. How it is done: At first, tumors were induced using wild type 4IC cells using a similar set up described in FIG. 5. After tumor induction, each group was treated with one of the following: SCR-AO (4IC SCR-AO Treated), SCR-AO and Paclitaxel (SCR-AO+Paclitaxel Treated), TRAF3IP2-AO Treated, or TRAF3IP2-AO and Paclitaxel (TRAF3IP2-AO+Paclitaxel Treated).

The next series concerns TNBC cells. Put plainly: Membrane potential assay (mitochondrial) in TNBC cells. Type of series: cell-based, human. The conditions noted are these: in TRAF3IP2 knockdown cells.
Series [1] relates to BN2 glioblastoma. Put plainly: Detection of intracranial dissemination by PCR of human-specific α-satellite DNA in brain biopsies. It is filed as in vivo, NSG mice. The conditions noted are these: compared to SCR-AO treated group. The source says:
To detect intracranial micrometastasis, the animals in experiments detailed in FIG. 14 were biopsied from adjacent sections of brain. The biopsy specimen were subjected to PCR assay using primers that specifically detect human-specific a-satellite DNA sequence of the centromere region of chromosome 17. Areas evaluated include the left parietal lobe, at a distance of 2 mm from the focus of initial tumor inoculation (Area I) and the right SSCx equidistant from the interhemispheric fissure relative to the focus of initial tumor inoculation (Area II) (FIG. 15).

The test system of a further series is 4IC tumors. In words: Treatment of late stage metastatic TNBC, bioluminescence imaging. Type of series: in vivo, mice. The conditions noted are these: 100 μg in 50 μl interperitoneally every 48 hours from day 42. As for the experimental part: To see if targeting and silencing TRAF3IP2 eliminates metastatic tumors in advanced metastatic TNBC, PDX model were used. 4IC tumors were induced intramammary into mice using 4IC cells [carrying a luciferase-expressing gene for ‘bioluminescence imaging’. Treatment was initiated in late stage BC indicated by advanced metastasis detectable by luciferase imaging (day 42). Animals were treated with TRAF3IP2-AO (100 μg in 50 μl) administered interperitoneally every 48 hours. Control group received SCR-AO in the same fashion (Data not shown). Representative images showing the extend of metastasis after treatment 1(T1), T5, T10, and T15. The control animals were treated with SCR-AO only on T1 and were euthanized due to the increasing tumor growth.

Series [2] concerns BN2 glioblastoma. In words: Glioblastoma PDX (BN2) intracranial model, ICV administration of AO, 2PE imaging and histology. It is filed as in vivo, NSG mice. The source says:
For the experiments reported here, the BN2 glioblastoma specimen was used in xenograft studies, and the results are shown in FIG. 14. Glioblastoma was induced by intracranial injection of tumor cells (into the left SSCx of NSG mice; 3×10^5 cells in PBS+Martigel; n=5 mice/group) isolated from primary glioblastoma tissue. At the time of the injection, a chronic cranial window was installed on the left side of the animal's skull that allowed in vivo 2PE imaging of tumor evolution.
For intracerebroventricular (ICV) administration of AO targeting TRAF3IP2 (TRAF3IP2-AO) or control scrambled AO (SCR-AO), a brain cannula was stereotaonctically implanted into the contralateral (right) ventricle (FIG. 14-A). Treatment of mice started on day 10 post-tumor induction with 5 μl every 48 h; 30 nanomolar AO (FIG. 14-B).
Using in vivo 2PE microscopy, angiograms of microvessels in glioblastoma tumors were captured through a cranial window after i.v. injection of fluorescein isothiocyanatedextran for visualization of blood vessels (green signal). Images correspond to day 24 post-tumor induction, after 8 ICV treatments with either SCR-AO (B, I&II; control group), or TRAF3IP2-AO (B IV&V).
Protein expression in residual tumors confirmed that targeting TRAF3IP2 suppresses inflammation, neoangiogenesis, cell cycle and apoptosis (FIG. 14-D).

Another series concerns TRAF3IP2. In words: Post-mortem Western blotting and immunohistochemical analysis of residual TNBC tumor of AO treated animals. It is filed as in vivo. The source says: Post-mortem analysis of residual tumor confirmed that targeting TRAF3IP2 suppresses inflammation, angiogenesis, cell cycle and apoptosis, and genes involved in exosome release (FIG. 7(A)).
(Immunoblotting shows a protein as a band on a membrane.)

The subject of series [3] is TNBC. In words: TNBC treated in vivo with antisense oligonucleotide, immunohistochemical analysis of angiogenesis. The text has this:
Also, it is notable that TRAF3IP2 induces the expression and release of pro-angiogenic mediators into the TME, activating endothelial cells to promote neo-vascularization. TRAF3IP2 silencing.

Series [4] concerns TNBC. In words: Detection of micrometastasis using PCR in TNBC metastatic niches of AO treated animals. Type of series: in vivo, mice. To be noted: α-satellite DNA of chromosome 17. How it is done: FIG. 4E. Detection of micrometastasis using PCR. Key TNBC metastatic niches were analyzed for micrometastasis using primers directed towards a human-specific alpha-satellite DNA sequence of the centromere region of human chromosome 17.
Moreover, PCR using primers that specifically detect human-specific a-satellite DNA sequence of the centromere region of human chromosome 17 indicated no micrometastasis in the treated group.

Entries after “also recorded” stand apart in the source; their conditions may differ.

Take `CS(=O)(=O)Nc1cc2occ(NC=O)c(=O)c2cc1Oc1ccccc1` [IGU, N-[7-(methanesulfonamido)-4-oxo-6-phenoxychromen-3-yl]formamide]: the cell viability result is reported as “about 65%” in the series on KNS (24 hours, C2, KNS control); “about 55%” with KNS (24 hours, C2, KNSTRAF3IP2KD); “about 55%” in the series on KNS (48 hours, C1, KNS control); “about 45%” in the series on KNS (48 hours, C1, KNSTRAF3IP2KD); “about 40%” in the series on KNS (72 hours, C2, KNS control); “about 25%” in the series with KNS (72 hours, C2, cells not named (KNSTRAF3IP2KD implied)). Moreover, the cell viability entry is on record as “about 40%” with U87 (48 hours, C2 (224.823 mM IGU), U87TRAF3IP2KD); “about 50%” in the series with U87 (48 hours, C2 (224.823 mM IGU), control group U87); “about 20%” in the series on U87 (72 hours, C2, U87TRAF3IP2KD); “about 40%” in the series with U87 (72 hours, C2, control group U87).
For `CC(=O)O[C@H]1C(=O)[C@@]2(C)[C@H]([C@H](OC(=O)c3ccccc3)[C@]3(O)C[C@H](OC(=O)[C@H](O)[C@@H](NC(=O)c4ccccc4)c4ccccc4)C(C)=C1C3(C)C)[C@]1(OC(C)=O)CO[C@@H]1C[C@@H]2O` [Paclitaxel, reference compound], the “increase of proportion of cells in G2” value in the series with 4IC is 23%. In addition, the “reduction of tumor volume / tumor size” value in the series with wild type 4IC cells was determined as 42%.
As for FCCP, the “mitochondrial membrane potential on addition of FCCP” value in the series on TNBC cells is “does not decrease mitochondrial membrane potential”.
In the case of “TRAF3IP2-AO: anti-sense oligonucleotide targeting TRAF3IP2, SEQ ID NO: 2 mG*mG*mU*mG*mG*G*C*A*C*A*T*G*C*T*C*mC*mU*mU*mC*mU”, the “intracranial metastasis at Area I (left parietal lobe) and Area II (right SSCx)” value in the series on BN2 glioblastoma [1] is recorded as “markedly reduced metastasis at both sites”. For the same compound, the “luciferase signal (metastasis)” value with 4IC tumors was “marked reduction of luciferase signal, reaching undetectable levels after 15 treatments”. The “tumor growth / tumor size” value in the series on BN2 glioblastoma [2] (ICV, 5 μl every 48 h, 30 nanomolar AO from day 10, vs. SCR-AO) was “reduced tumor growth; also recorded: marked reduction in tumor size; also recorded: significantly less growth and smaller volumes”. Besides, in the series on BN2 glioblastoma [2] (compared to SCR-AO treated), the “blood vessel density / vascularization” value is given as “lower blood vessel density/angiogenesis; also recorded: less vascularization”. Also, in the series with BN2 glioblastoma [2] (mouse, in vivo), the “glioblastoma cells (human cells) in residual tumor tissue, staining for human-specific mitochondria” value is listed as “significantly less number” and the “infiltrating cells in subcortical areas (histology of brain sections)” value is on record as “significantly smaller number of infiltrating cells”. Further, the “immunohistochemical levels of TRAF3IP2, IL8 and Caspase 3 in tumor” value in the series on TRAF3IP2 (treated group vs. SCR-AO) was “decreased levels of TRAF3IP2 and IL8 and increased Caspase 3”. Further, in the series on TRAF3IP2 (vs. SCR-AO), the “levels of TRAF3IP2, IL8, IL1b, and VEGF in tumors (protein expression analysis)” value was “significantly lower levels”. Moreover, in the series on TNBC [3] (TNBC in vivo), the tumor growth entry is “reduced tumor growth”. Moreover, the “blood vessel density/angiogenesis (CD31 staining)” value in the series with TNBC [3] (compared to SCR-AO treated tumors) is “lower blood vessel density/angiogenesis”. In the series with TNBC [3] (in vivo), the “TNBC cells (human cells) in residual tumor tissue, staining for human-specific mitochondria” value was “significantly less number”. In addition, the “micrometastasis: human-specific DNA sequence in most common metastatic sites” value in the series on TNBC [4] was “No human specific DNA sequence was detected”. Also, in the series on wild type 4IC cells, the “reduction of tumor volume / tumor size” value stood at 78%.
